Assay results from patent publication US4060652A (priority 1976, dated 1977).
“Also recorded” adds a separate entry of the source.

Tests used:
[1] = system: M-cholinoreceptors and conduction in parasympathetic ganglia; assay: Effect on M-cholinoreceptors and parasympathetic ganglia, n. vagus stimulation in cats; type: in vivo
Method: Experiments were carried out on narcotized cats (chloralose and urethane, intraperitoneally).
In experiments on five animals, the left nervus vagus was cut. Platinum electrodes were placed on the peripherial part to stimulate the nerve with pulses of 0.1 msec and an amplitude of 5 V. The nerve was stimulated every 10 seconds at a frequency of 30 Hz. The pulse rate was recorded (ECG) and the blood pressure in the femoral artery was measured with a mercury pressure gauge.

[2] = system: pigeons; assay: Paralysis in pigeons; type: in vivo
[3] = Solubility, stability and pH; type: physicochemical; conditions: for stability on exposure to air: solid
Method: The active principle of Tercuronium, viz., p,p"-bis-triethylammonio-n-terphenyl dibenzenesulphonate having the structure [drawing 1] is a new compound that has not been described in literature. […] A 0.0012 percent solution of the active principle in a 0.01 N solution of hydrochloric acid has a specific absorption spectrum in the U-V region, with a maximum at 285 ± 2 nm and a minimum at 237 ± 1 nm.
Distilled water should contain a stabilizing agent, namely 3 ml of a 0.1 N solution of HCl per liter of water. The solution is stirred, filtered, and filled into 1-ml ampoules made of neutral glass. The ampoules are sterilized with steam at a temperature of 100° C for thirty minutes. The pH of the solution after sterilization is 3.7 (determined potentiometrically).

[4] = Lethality by paralysis of respiratory muscles in mice; conditions: mouse, in vivo, iv
From the text: In experiments on albino mice, the dose of Tercuronium injected into the tail vein, that inhibited the symptom of turning from the lateral position in 50 percent of mice (ED50) was 0.06 mcM/kg (18 experiments); and 50 percent of mice perished from paralysis of the respiratory muscles (LD50) following an injection of 0.09 mcM/kg of Tercuronium.

[5] = system: phrenico-diaphragm preparations; assay: Block of nervomuscular conduction in isolated phrenico-diaphragm preparations; design: species or system rats; conditions: rat, isolated by the Bulbring method
From the text: In experiments on phrenico-diaphragm preparations of rats, isolated by the Bulbring method, the block of the nervomuscular conduction developed under the action of Tercuronium in a concentration of 2 × 10^-6 m/litre.

[6] = system: nervomuscular conduction, vegetative ganglia, circulation; assay: Overall conclusions from animal experiments; type: in vivo, animals
From the text: The results of the pharmacological studies of the proposed muscle relaxant Tercuronium, as compared with the known muscle relaxants, enable us to make the following conclusions.

[7] = system: respiration; assay: Inhibition of respiration in narcotized and decerebrated cats (and rabbits); type: in vivo
From the text: This developed simultaneously with the block of the nervomuscular conduction in the anterior tibial muscle. […] The same result was obtained in experiments on rabbits. The ratio of LD50 in experiments on rabbits and mice, as specified above, also provides data on the that Tercuronium produces on respiration.

[8] = system: straight muscles of the frog abdomen; assay: Isolated straight muscle of frog abdomen, antagonism of acetylcholine; design: species or system frog (Rana tempraria)
From the text: In experiments on isolated straight muscles of the frog abdomen (Rana tempraria) the concentration of Tercuronium, that weakened the action acetylcholine, was 2.0 ± 0.04 × × 10^-7 m/l.

[9] = system: ischio-gastrocnemius conduction; assay: Block of ischio-gastrocnemius conduction in narcotized rabbits; type: in vivo
Method: In experiments on narcotized rabbits (chloralose, 50 mg/kg, and urethane, 500 mg/kg, given intravenously) the intravenous dose of Tercuronium that produced complete block of the ischio-gastrocnemius conduction was 0.025 ± 0.005 mcM/kg (five experiments).

[10] = system: nervomuscular conduction and arterial pressure; assay: Effect of narcotics on action in decerebrated cats; type: in vivo
From the text: The action of ether, fluorothane, and sodium thiopental (given in narcotic concentrations) on the nervomuscular blocking activity and depressive effect (action on the arterial pressure) of Tercuronium, as well as on the neostigmin-Tercuronium antagonism was studied on decerebrated cats.

[11] = system: arterial pressure; assay: Effect on arterial pressure in cats and rabbits; type: in vivo
Method: (§1) Experiments were carried out on narcotized cats and rabbits (50 mg/kg of chloralose and 500 mg/kg urethane, intraperitoneally) and also on cats decerebrated at the quadrigeminal level. The blood pressure in the carotid artery was recorded with a mercury pressure gauge. The preparations were injected intravenously.
(§2) When Tercuronium was given in a quantity ten times exceeding the myoparalytic dose (0.8 mcM/kg) an insignificant and transient reduction (10 to 20 mm Hg) of the blood pressure was observed. The animals (7 cats and 5 rabbits) tolerated injections of very large doses of Tercuronium, viz., 10-20 mcM/kg, which is 200 times higher than the myoparalytic dose. […] In all experiments, in 1 to 2 hours, the arterial pressure restored completely or was close to the initial level.

[12] = Effect on arterial pressure in cats and rabbits; type: in vivo; conditions: rabbit, in vivo, iv, artificial ventilation
Method: as §1, §2

[13] = system: rabbits; assay: Head-drop test in non-narcotized rabbits; type: in vivo
Method: In experiments (a total of twenty) on non-narcotized rabbits, the head-drop dose (HDD) was 0.022 ± 0.009 micromole/kg A complete blocking effect developed 1.5 to 2 minutes after administration of Tercuronium and persisted for 3 to 5 minutes. A few minutes later, the animal behaviour normalized. The same effect was attained with 0.18 ± 0.02 micromole/kg of α-tubocurarin (6 experiments) and 0.018 ± 0.001 mcM/kg of pancuronium (6 experiments). The time of onset and the duration of the blocking effect with all the three preparations were the same.

[14] = deep fluorothane-induced anesthesia
[15] = ether, fluorothane, sodium thiopental

In the case of `CC[N+](CC)(CC)c1ccc(-c2ccc(-c3ccc([N+](CC)(CC)CC)cc3)cc2)cc1` [Tercuronium, p,p"-bis-triethylammonio-n-terphenyl dibenzenesulphonate], the “response of n. vagus to stimulation” value ([1]; 0.1 and 1.0 mcM/kg) is reported as “the response of n. vagus to stimulation did not change”, the “heart contractility without stimulation of n. vagus” value ([1]; 0.1 and 1.0 mcM/kg intravenous) is reported as “heart contractility was not affected” and the “effect on parasympathetic part of the vegetative nerve system” value ([1]; 20 times the myoparalytic dose) is reported as “does not produce any effect on the parasympathetic part of the vegetative nerve system”. For the same compound, the bronchospasm or salivation ([1]; very large dose, other experiments on animals) was “no bronchospasm or salivation were observed”, the effect in pigeons ([2]; 0.2 mcM/kg intravenous) was “weak paralysis developed; also recorded: shows the nondepolarizing effect as well” and the ED50 ([2]; Columbidae, pigeons, intravenous) was 0.2 µmol/kg. For the same compound, the solubility in water [3] was “readily soluble in water”, the “stability on exposure to air” value [3] was “slightly green when exposed to air” and the “stability on exposure to air” value ([3]; listed as p,p"-bis-triethylammonio-p-terphenyl) was “becomes slightly green on exposture to air”. For the same compound, the “stability of aqueous solution” value ([3]; stabilizer 3 ml of 0.1 N HCl per liter of water) was “stable in the presence of a stabilizer”, the LD50 [4] was 0.09 µmol/kg and the selectivity ratio ([4]; read-out: width of the muscle relaxing action (LD50/ED50)) was 1.5. The “concentration blocking nervomuscular conduction” value [5] was 2 × 10^-6 m/litre, the “blood pressure at ten-fold dose” value ([6]; cats, ten-fold dose) was “only slightly reduced” and the “nervomuscular blocking activity compared with pancuronium” value ([6]; experiments on animals) was “somewhat lower than of pancuronium”. For the same compound, the “histamine, vegetative ganglia, blood pressure and heart frequency” value ([6]; myoparalytic dose) was “does not produce histamine, does not block vegetative ganglia or affect the blood pressure and frequency of heart contractions”, the “frequency of heart contraction” value ([6]; ten times the myoparalytic dose) was “does not affect the frequency of heart contraction” and the bronchospasm ([7]; 200-1000-fold dose, artificial ventilation, cats, same in rabbits) was “bronchospasm did not develop”. The “inhibition of respiration by blocking doses, comparison” value ([7]; from LD50 to ED50 ratio) was “equally inhibit respiration”, the effect on respiration ([7]; narcotized and decerebrated cats) was “respiration was inhibited and stopped by a curare-like paralysis of the diaphragm; also recorded: respiration was restored simultaneously with the restoration of the muscle contraction” and the “contractions produced in the muscle” value [8] was “did not produce contractions in the muscle”. The ED100 ([9]; Oryctolagus cuniculus, narcotized rabbits, intravenous, five experiments, read-out: dose producing complete block of ischio-gastrocnemius conduction) was 0.025 ± 0.005 µmol/kg, the “restoration of muscle contraction by neostigmin” value ([9]; neostigmin 0.1 mg/kg during complete block) was “always resulted in immediate and full restoration of the muscle contraction” and the “interaction with fluorothane on blood pressure” value ([10]; decerebrated cats) was “did not observe mutual strengthening of fluorothane and Tercuronium action on blood pressure”. The “action on arterial pressure in ether narcosis” value ([10]; deep ether-induced narcosis) was “did not substantially change”, the “depressive effect in fluorothane anesthesia” value [10, 14] was “failed to increase” and the “myoparalytic effect in fluorothane anesthesia” value [10, 14] was “intensified insignificantly”. The “compatibility with anesthetic agents” value [10, 15] was “quite compatible with anesthetic agents such as ether, fluorothane, and sodium thiopental”, the “neostigmin antagonism against background of narcotics” value [10, 15] was “persisted against the back ground of narcotics; also recorded: fully preserved” and the “curare-like activity and action on blood pressure with sodium thiopental” value ([10]; sodium thiopental 10 mg/kg) was “did not change”. For the same compound, the “blood pressure at very large doses” value ([11]; 10-20 mcM/kg) was “quickly and sharply dropped and then slowly normalized”, the “arterial pressure on doses that inhibit respiration” value ([11]; active ventilation of the lungs) was “asphyxial rise in the arterial pressure” and the “effect on arterial pressure of myoparalytic (complete block) dose” value ([11]; artificial ventilation) was “the arterial pressure was not affected”. The “reduction of blood pressure” value ([11]; ten times the myoparalytic dose (0.8 mcM/kg)) was 10-20 mm Hg, the “effect on arterial pressure, comparison” value ([11]; versus the other two muscle relaxants) was “mildest effect on the arterial pressure” and the selectivity ratio ([12]; 10-20 mcM/kg, read-out: tolerated dose as multiple of myoparalytic dose) was 200. For the same compound, the MTD ([12]; cats and rabbits, read-out: tolerated dose) was 10 to 20 µmol/kg, the ED (head drop) ([13]; Oryctolagus cuniculus, read-out: head-drop dose (HDD)) was 0.022 ± 0.009 µmol/kg and the “time of onset and duration of blocking effect, comparison” value ([13]; all three preparations) was “the same”. For the same compound, the “blocking effect compared with pancuronium” value ([13]; rabbits) was “somewhat lower than that of pancuronium” and the “blocking effect relative to α-tubocurarin” value ([13]; rabbits) was “eight”.
